Measurements reported in the SangsterLogP compilation.

Compound `CCCCOC(=O)c1ccccc1` has a logP of 3.68. With `CCC(=O)c1ccccc1` the logP was 2.3. Work on `O=C(O)CCn1ccc2ccccc21` yielded a logP of 2.2. Work on `O=C(O)Cn1ccc2cc(O)ccc21` yielded a logP of 1.17. With `O=C(O)c1cc2ccccc2cc1O` the logP was 3.05. In the case of `O=C(O)Cn1ccc2ccccc21`, the logP is reported as 1.92. With `COc1cc(C(O)C(=O)O)ccc1O` (centres undefined) the logP was 0.84. For `CC(C)CCOC(=O)c1ccccc1`, the logP was 4.1. `O=C(O)Cc1ccc(O)cc1` gave a logP of 1.26. `O=C(O)c1cc(O)cc(O)c1` showed a logP of 0.94. Work on `COc1cccc(C(O)C(=O)O)c1` (centres undefined) yielded a logP of 1.33. Compound `O=C(O)c1ccc(O)c(O)c1` has a logP of 0.99. Compound `O=C(O)Cc1ccccc1O` has a logP of 1.47. In the case of `O=C(O)C1CCCCC1`, the logP is reported as 1.96. Compound `COc1cc(CC(=O)O)ccc1O` has a logP of 1.18. With `O=C(O)Cc1ccc(O)c(O)c1` the logP was 0.98. In the case of `O=C(O)Cc1cc(O)ccc1O`, the logP is reported as 0.86. In the case of `O=C(O)c1cc(O)c(O)c(O)c1`, the logP is reported as 0.72. Work on `COc1cccc(/C=C/C(=O)O)c1` yielded a logP of 2.37.
